Values of other authors in patent US6703367B1, “Methods for treating hot flashes and gynaecomastia” (Praecis Pharmaceuticals Inc., priority 2001, dated 2004).

Experiments:
gynaecomastia = details: for men in whom gynaecomastia was reduced: middle aged men
hot flashes = details: for reduce hot flashes to: progestin therapy

C#C[C@]1(O)CC[C@H]2[C@@H]3CCC4=Cc5oncc5C[C@]4(C)[C@H]3CC[C@@]21C [DANAZOL]
men in whom gynaecomastia was reduced (gynaecomastia): approximately 70%

CC(=O)[C@@]1(O)CC[C@H]2[C@@H]3C[C@H](C)C4=CC(=O)CC[C@]4(C)[C@H]3CC[C@@]21C [Medroxyprgesterone]
reduce hot flashes to (hot flashes): 75-100%

CC(=O)O[C@]1(C(C)=O)CC[C@H]2[C@@H]3C=C(C)C4=CC(=O)CC[C@]4(C)[C@H]3CC[C@@]21C [Megestrol acetate]
reduce hot flashes to (hot flashes): 25-85%

CLOMIPHENE
effect on gynaecomastia (gynaecomastia; in vivo): unsuccessful

Medthyldopa
decrease of hot flashes (hot flashes; in vivo): 30%

Tamoxifen
men in whom gynaecomastia was reduced (gynaecomastia): approximately 70%

clonidine
effect on hot flashes, orally administered (hot flashes; oral): varied
effect on hot flashes, administered transdermally (hot flashes; transdermal, hot flashes due to Tamoxifen): reduced the frequency and severity of hot flashes
